Converted amounts (≈) assume the structure as drawn. Where two headings read alike, the source gives them in different places.

In experiment [1] the test system is P. acnes NCTC 737. The experiment is described as follows: Minimum bactericidal concentration (MBC) assay. The experiment is classed as cell-based, Propionibacterium acnes. On the procedure:
The propionibacteria were cultured and maintained on Wilkins-Chalgren Anaerobe Medium (agar and broth) at pH 6.0; all cultures were incubated anaerobically at 37° C. for 72 hours. This assay, normally carried out after an MIC assay, determines the rnininiurn concentration of a compound that is lethal to the micro-organism being tested. […] These samples were then individually sub-cultured on antibiotic-free agar medium, under the incubation conditions described above. Following incubation they were examined visually for microbial growth.

Experiment [2] relates to P. acnes NCTC 737. In words: Well diffusion assay. As to conditions: gel (Solutol HS 15, ethanol, hydroxyethyl cellulose, water) with 5% w/w DOSS and/or 0.2% w/w TCC, diluted 1:2 with placebo gel. The experiment is classed as cell-based, Propionibacterium acnes. On the procedure: The propionibacteria were cultured and maintained on Wilkins-Chalgren Anaerobe Medium (agar and broth) at pH 6.0; all cultures were incubated anaerobically at 37° C. for 72 hours. A hole with a diameter of 8 mm was bored into the centre of an agar plate inoculated (swabbed) with the test-microorganism using a sterile “cork” borer (size No. 4). A volume (100 μl unless stated otherwise) of the test compound(s), either formulated or in a suitable solvent, was then placed into the bored hole. The plate was incubated under the conditions described above, following which it was examined visually for signs of microbial growth. If the test compound had antimicrobial activity, a circular zone of no growth would be obtained around the bored hole. The diameter of this zone of “inhibition” was measured using a ProtoCOL™ automated zone sizer (Synbiosis, Cambridge, UK). In general, a greater diameter and/or area of the zone of inhibition indicates a greater antimicrobial activity in the relevant test compound, although other factors such as test compound mobility through the agar gel, and the extent to which a compound is released from a formulation, may also influence the result.
In general terms: In agar diffusion tests the substance spreads into inoculated agar from a disc or well.

The subject of experiment [3] is Por. gingivalis NCTC 11834. The experiment is described as follows: (S)DDA disc diffusion. Format: cell-based, Porphyromonas gingivalis. As to conditions: for DDA: 200 μg per disc. On the procedure: The P. gingivalis strains were cultured and maintained on Wilkins-Chalgren Anaerobe Medium (agar and broth) at pH 7.0; all cultures were incubated anaerobically at 37° C. for 5-7 days.
(§1) A sterile paper disc was impregnated with a sample of the test compound in a suitable solvent and 30 minutes allowed for the solvents to evaporate (where possible). The disc was then placed on an agar plate onto which the test micro-organism had been inoculated. The plate was then incubated under the conditions described above, following which it was examined visually for signs of microbial growth. If the test compound had antimicrobial activity, a circular zone of no growth would be obtained around the disc. The diameter of this zone of “inhibition” was measured using a ProtoCOL™ automated zone sizer (Synbiosis, Cambridge, UK). In general, a greater diameter and/or area of the zone of inhibition indicates a greater antimicrobial activity in the relevant test compound, although other factors such as test compound mobility through the agar gel may also influence the result.
Two test a compounds A and B were placed on a single paper disc and the above described DDA procedure repeated. An increase in diameter of the zone of inhibition, compared to the greater of the zone diameters for the two compounds individually, was taken to indicate potential antimicrobial synergy. In practical terms, an increase of greater than 5 mm could be treated as significant.
For the (S)DDA experiments; 200 μg of the DOS salts and/or the TCC were loaded onto each disc for Por. gingivalis experiments. For the Strep. mutans experiments, 200 μg of the TCC and 50 μg of DOSS were used on each disc. All the experiments were conducted in triplicate.

Experiment [4] concerns C. striatum NCTC 764. In words: (S)DDA disc diffusion. Format: cell-based, Corynebacterium striatum. The note with it: for DDA: 200 μg per disc. On the procedure:
Several Corynebacterium test species were also used in this study, namely C. mucifaciens ATCC 700355, C. striatum NCTC 764, C. xerosis NCTC 11861 and C. jeikeium NCTC 11915. These Gram-positive pathogens are closely related to organisms (aerobic diphtheroids of the genus Corynebacterium) that cause body odour. C. mucifaciens and C. striatum were cultured and maintained on Mueller-Hinton Medium (agar and broth) and were incubated aerobically at 37° C. for 24 hours. C. xerosis and C. jeikeium were cultured and maintained on Mueller-Hinton Medium containing 5% (v/v) lysed horse blood (agar and broth) and were incubated aerobically at 37° C. for 72 hours. A sterile paper disc was impregnated with a sample of the test compound in a suitable solvent and 30 minutes allowed for the solvents to evaporate (where possible). The disc was then placed on an agar plate onto which the test micro-organism had been inoculated. The plate was then incubated under the conditions described above, following which it was examined visually for signs of microbial growth. If the test compound had antimicrobial activity, a circular zone of no growth would be obtained around the disc. The diameter of this zone of “inhibition” was measured using a ProtoCOL™ automated zone sizer (Synbiosis, Cambridge, UK). In general, a greater diameter and/or area of the zone of inhibition indicates a greater antimicrobial activity in the relevant test compound, although other factors such as test compound mobility through the agar gel may also influence the result. Two test a compounds A and B were placed on a single paper disc and the above described DDA procedure repeated. An increase in diameter of the zone of inhibition, compared to the greater of the zone diameters for the two compounds individually, was taken to indicate potential antimicrobial synergy. In practical terms, an increase of greater than 5 mm could be treated as significant. The activities of DOSS and TCC were determined, using (S)DDAs, against the test organisms C. mucifaciens ATCC 700355, C. striatum NCTC 764, C. xerosis NCTC 11861 and C. jeikeium NCTC 11915. 200 μg of the DOSS and/or the TCC were loaded onto each disc. All the experiments were conducted in triplicate.

Experiment [5] relates to B. cereus ATCC 11778. The experiment is described as follows: (S)DDA disc diffusion. The note with it: 200 μg per disc. Format: cell-based, Bacillus cereus. The procedure:
as §1
Two test a compounds A and B were placed on a single paper disc and the above described DDA procedure repeated. […]
The activities of DOSS and TCC were determined, using (S)DDAs, against a panel of further test micro-organisms, namely B. cereus ATCC 11778, Bact. fragilis ATCC 25285, Clost. difficile […] and E. faecalis ATCC 29212. […]

In general, MBC refers to the smallest concentration meeting the test's criterion for killing. Consider `O=C(Nc1ccc(Cl)cc1)Nc1ccc(Cl)c(Cl)c1` [TCC, N-(4-chlorophenyl)-N′-(3,4-dichlorophenyl) urea], for which the minimal bactericidal concentration (MBC) in experiment [1] (Cutibacterium acnes, NCTC737, read-out: MBC) stood at 31.2 µg/mL (≈ 99 µM). The “(S)DDA” value in experiment [2] came to 0 mm. The figures for the DDA in experiment [3], in experiment [4] and in experiment [5] were 23.73 mm, 14.08 mm and 12.96 mm, respectively.
Regarding dioctyl sodium sulphosuccinate [DOSS], in experiment [1], the MBC stood at 62.5 µg/mL and the MIC/MBC ratio is given as 0.25. The “(S)DDA” value in experiment [2] worked out at 42.40 mm. In experiment [3], the SDDA area increase came out at 54.34%, the SDDA increase was found to be 12.39 mm and the DDA worked out at 51.13 mm. Moreover, the “SDDA with TCC” value in experiment [3] (200 μg DOS salt + 200 μg TCC on one disc) came to 63.52 mm. Moreover, in experiment [4], the SDDA area increase is reported as 70.79%, the SDDA increase was 6.0 mm and the DDA came to 19.57 mm. Moreover, the “SDDA with TCC” value in experiment [4] (200 μg DOSS + 200 μg TCC on one disc) amounted to 25.57 mm. In experiment [5], the DDA is recorded as 18.10 mm.
